Converted amounts (≈) assume the structure as drawn. Where two headings read alike, the source gives them in different places.
Columns and labels:
[1] = Aqueous solubility (MultiScreen Solubility Filter Plate); assay type: physicochemical; settings: MultiScreen Solubility Filter Plate (Millipore), kinetic from dmso stock
Protocol: (§1) Methods: Jak2-V617F expressing Human Erythroleukemia (HEL) cells were plated in 96 well plates at ˜40,000 cells per well and incubated with either vehicle control (0.25% DMSO) or with 25 uM of Jak2 kinase inhibitors. Viable cell numbers were then determined at the times (0, 4, 24, 48 and 72 hours) via trypan blue exclusion and a hemocytometer. Aqueous solubility was determined using a MultiScreen® Solubility Filter Plate (Millipore) (see Quantitative method to determine drug aqueous solubility: optimization and correlation to standard methods; http://www.millipore.com/techpublications/tech1/an1730en00) and a Spectrophotometer.

[2] = test system: Jak2-V617F expressing Human Erythroleukemia (HEL) cells; experiment: Inhibition of Jak2-V617F dependent HEL cell growth (trypan blue viable cell count); assay type: cell-based; settings: for inhibition at 25 µM: Homo sapiens, HEL; for inhibition at 25 µM / % Growth Inhibition: 25 uM inhibitor
Protocol: as §1

[3] = test system: Marrow derived mononuclear cells (polycythemia vera, Jak2-V617F positive); experiment: Ex vivo colony formation of marrow cells from a polycythemia vera patient; assay type: cell-based, human; settings: 25 or 2.5 μM
Protocol: Methods: Marrow derived mononuclear cells were obtained from a person, who has been confirmed to have polycythemia vera and also identified as Jak2-V617F positive. Marrow derived mononuclear cells were washed three times in IMDM media and plated at 4×10^5 cells/mL in 1 mL methylcellulose media (0.9% methylcellulose, 30% heat inactivated FCS, 0.1 mM 2-mercaptoethanol, 0.9% BSA, 0.05% NaHCO3, 2 mM/L glutamine, penicillin, streptomycin, 50 ng/mL SCF, and 20 ng/mL IL-3 (Stem Cell Technologies, Vancouver, BC). Vehicle control (DMSO at 0.25%) or inhibitors were added at the indicated concentrations (25 or 2.5 μM). EPO (1 U/mL) was also added as indicated. The cultures were then incubated at 37° C. and 5% CO2 until assessment of colony formation at day 14. Results were expressed as the average number of colonies from duplicate cultures per 4×10^5 cells.

[4] = test system: Jak2-V617F expressing Human Erythroleukemia (HEL) cells; experiment: Inhibition of Jak2-V617F dependent HEL cell growth (trypan blue viable cell count); assay type: cell-based; settings: for IC50: read-out: IC50 for inhibition on Jak2-V617F dependent HEL cells proliferation
[5] = test system: Jak2-V617F expressing HEL cells; experiment: Apoptosis assay (Annexin V/Propidium Iodide FACS); assay type: cell-based, Human; settings: 25 μM, 48 hours
Protocol: Jak2-V617F expressing HEL cells were exposed to either vehicle control (DMSO), or 25 μM of an inhibitor for 48 hours. The percentage of apoptotic cells was then determined via Annexin V/Propidim Iodide FACS analysis.

[6] = test system: Marrow derived mononuclear cells (Essential Thrombocythemia, Jak2-V617F positive); experiment: Ex vivo Jak2-V617F dependent megakaryocyte colony formation (essential thrombocythemia patient); assay type: cell-based, human; settings: 25 uM, day 14
Description: Marrow derived mononuclear cells were taken from a person, who was confirmed Essential Thrombocythemia and being Jak2-V617F positive.

[7] = test system: HEL cells; experiment: Jak2-V617F-induced hematopoietic disease in NOD-SCID mouse model (HEL cell injection); assay type: in vivo, NOD-SCID mice
Protocol: Methods: In the experiment, NOD-SCID mice, N=36. were randomized into 6 groups (n=6). Baseline peripheral blood samples and weights were taken at Day 0. At day 7, 2×10^6 HEL cells were injected into each mouse in Groups 2, 3, 4 and 5. […] Then all the mice were euthanized.
In the experiment, the following measurable endpoints were assessed. For peripheral blood, total white blood cell (WBC) counts, the percentage of blast cells, the percentage of nucleated red blood cells (RBC), and Hematocrits were measured. For bone marrow, quantitative cellularity, and Myeloid cell to erythroid cell (M:E) ratio were assessed. Further, toxicity in spleen, brain, kidney, liver, and lung using histological analysis is assessed.
Peripheral blood samples were obtained via weekly submandibular bleeds using a 21 gauge needle. Blood samples were smeared onto glass slides, stained, and dried. Peripheral blast cells on each slide were then tabulated using a pathology light microscope. The average percent of peripheral blast cells for each treatment group was then graphed as a function of time.
At necropsy, femurs from each animal were formalin fixed, de-calcified and then parrafin embedded. Parrafin sections were then made, stained with hematoxylin and eosin and dried. The number of myeloid and erythroid cells were then tabulated by a veterinary pathologist who was blind to the treatment groups. The ratio of myeloid to erythroid cells was then graphed as a function of treatment group. Further, the average number of mature and immature erythroid cells was then graphed as a function of treatment group.
Additionally, at necropsy, animals were weighed one final time and spleens were then removed from each mouse. The wet weight of each spleen was recorded and the spleen weight to body weight ratio was graphed as a function of treatment group.

[8] = target: T1, recombinant p60c-src (Homo sapiens, UniProt P12931); experiment: c-Src assay (in vitro kinase reaction, anti-Src pY418 Western blot); assay type: biochemical; settings: 25 uM, 20 minutes, room temperature
T1 construct: purchased Upstate Biotechnology
Protocol: Approximately 4 μL (12 units) of catalytically active recombinant p60c-src (Upstate Biotechnology) was incubated in 46 μL of in vitro kinase reaction buffer (50 mM HEPES, pH 7.6, 5 mM MnCl2, 5 mM MgCl2, 100 mM NaCl, 0.5 mM DTT), either in the presence of DMSO or 25 uM Z3. The reactions were incubated for 20 minutes at room temperature and then
terminated by addition of SDS-containing buffer. The samples were Western blotted with an anti-Src (pY418) polyclonal antibody (Biosource).

C/C(=C(\C)c1ccc(CN(C)C)c(O)c1)c1ccc(CN(C)C)c(O)c1 [NB-9, (Z)- and (E)-5,5′-(But-2-ene-2,3-diyl)bis(2-((dimethylamino)methyl)phenol).2HCl]
solubility [1]: 384 µM
inhibition at 25 µM [2]: 101%

Oc1cc(/C=C\c2ccc(CN3CCCCC3)c(O)c2)ccc1CN1CCCCC1 [NB-7, (Z)- and (E)-5,5′-(Ethene-1,2-diyl)bis(2-(piperidin-1-ylmethyl)phenol)]
solubility [1]: 495 µM (≈ 201 µg/mL)
inhibition at 25 µM [2]: 99%

C/C(=C(/C)c1ccc(CN(C)C)c(O)c1)c1ccc(CN(C)C)c(O)c1 [NB-4, (Z)- and (E)-5,5′-(But-2-ene-2,3-diyl)bis(2-((dimethylamino)methyl)phenol)]
solubility [1]: 478 µM (≈ 169 µg/mL)
inhibition at 25 µM [2]: 101%

CCN(CC)Cc1cc(/C=C/c2ccc(O)c(CN(CC)CC)c2)ccc1O [NB-1, (Z)- and (E)-4,4′-(Ethene-1,2-diyl)bis(2-((diethylamino)methyl)phenol)]
pathologic cell growth (colony formation at day 14) [3]: reduce pathologic cell growth
IC50 ([4]; Homo sapiens, HEL): ~4 µM
% of Cells in Apoptosis [5]: 66%
suppressing HEL cell growth compared with G6 [5]: behaves similarly to G6
solubility [1]: 533 µM (≈ 204 µg/mL)
inhibition at 25 µM [2]: 98%

CCN(CC)Cc1ccc(/C=C\c2ccc(CN(CC)CC)c(O)c2)cc1O [NB-5, (Z)- and (E)-5,5′-(Ethene-1,2-diyl)bis(2-((diethylamino)methyl)phenol)]
solubility [1]: 509 µM (≈ 195 µg/mL)
inhibition at 25 µM [2]: 101%

(Z)- and (E)-4,4′-(But-2-ene-2,3-diyl)bis(2-((diethylamino)methyl)phenol) [NB-2]
pathologic cell growth (colony formation at day 14) [3]: reduce pathologic cell growth
IC50 ([4]; HEL cells): ~9 µM
% of Cells in Apoptosis [5]: 28%
suppressing HEL cell growth compared with G6 [5]: not as effective as G6
% Growth Inhibition ([2]; 25 µM): 53%

CCN(CC)Cc1ccc(/C(C)=C(\C)c2ccc(CN(CC)CC)c(O)c2)cc1O [NB-8, (Z)- and (E)-5,5′-(But-2-ene-2,3-diyl)bis(2-((diethylamino)methyl)phenol).2HCl]
solubility [1]: 272 µM
inhibition at 25 µM [2]: 100%

(Z) and (E)-4,4′-(Hex-3-ene-3,4-diyl)bis(2-((diethylamino)methyl)phenol) [Compound G6]
Jak2-V617F dependent megakaryocyte colony formation [6]: blocks Jak2-V617F dependent megakaryocyte colony formation
pathologic cell growth (colony formation at day 14) [3]: reduce pathologic cell growth
Jak2-V617F dependent HEL cell proliferation, dose and time dependence ([4]; HEL cells): Inhibits Jak2-V617F Dependent HEL Cell Proliferation in both a dose and time dependent manner
IC50 ([4]; HEL cells): ~4 µM
Peripheral blood counts of granulocytes, neutrophils, and eosinophils ([7]; 10 mg/kg/day): all normal
bone marrow necrosis ([7]; 10 mg/kg/day): 2 of 6
histology of brain, kidney, liver, and lung ([7]; 10 mg/kg/day): histologically normal
splenic necrosis ([7]; 10 mg/kg/day): 3 of 6
percentage of blast cells in peripheral blood ([7]; 0.1-10 mg/kg/day): reduces the percentage of blast cells in peripheral blood in a dose-dependent manner
numbers of mature and immature Erythroid cells in bone marrow ([7]; mouse, in vivo): reduced numbers of mature Erythroid cells, not immature Erythroid cells
% of Cells in Apoptosis [5]: 79%
c-Src tyrosine kinase activity [8]: no effect on c-Src tyrosine kinase activity
time required to inhibit Jak2-V617F dependent cell proliferation by 50% [2]: ~11 h
% Growth Inhibition [2]: 100%

CCN(CC)Cc1ccc(/C(C)=C(/C)c2ccc(CN(CC)CC)c(O)c2)cc1O [NB-3, (Z)- and (E)-5,5′-(But-2-ene-2,3-diyl)bis(2-((diethylamino)methyl)phenol)]
solubility [1]: 460 µM (≈ 189 µg/mL)
inhibition at 25 µM [2]: 101%

CCN(CC)Cc1ccc(/C=C/c2ccc(CN(CC)CC)c(O)c2)cc1O [NB-10, (Z)- and (E)-5,5′-(Ethene-1,2-diyl)bis(2-((diethylamino)methyl)phenol).2HCl]
solubility [1]: 474 µM
inhibition at 25 µM [2]: 100%

Oc1cc(/C=C/c2ccc(CN3CCCCC3)c(O)c2)ccc1CN1CCCCC1 [NB-12, (Z)- and (E)-5,5′-(Ethene-1,2-diyl)bis(2-(piperidin-1-ylmethyl)phenol)]
solubility [1]: 484 µM (≈ 197 µg/mL)
inhibition at 25 µM [2]: 100%

CN(C)Cc1ccc(/C=C\c2ccc(CN(C)C)c(O)c2)cc1O [NB-6, (Z)- and (E)-5,5′-(Ethene-1,2-diyl)bis(2-((dimethylamino)methyl)phenol)]
solubility [1]: 538 µM (≈ 176 µg/mL)
inhibition at 25 µM [2]: ~19%

Source: patent US20110301159A1, “KINASE INHIBITOR COMPOUNDS” (UNIVERSITY OF SOUTH FLORIDA, priority 2008, published 2011)
